Assay results from article PMC12920294, “Optimizing uPAR-targeting radiopeptides for improved tissue distribution: progress towards radionuclide therapy” (European Journal of Nuclear Medicine and Molecular Imaging, 2025).
Where two headings read alike, the source gives them in different places.

What was measured:
[1] = type: in vitro ADME; conditions: 1 µM
Description: The ^177Lu-labeled peptides (50 MBq/nmol) were incubated in mouse or human blood plasma (10 MBq/200 µL) over an incubation period of 24 h at 37 °C. Aliquots and control samples of the radiopeptides diluted in saline were analyzed after 1 h, 4 h and 24 h using thin layer chromatography (TLC) as previously reported (Supplementary Material). The distribution coefficients (logD values) of the ^177Lu-labeled peptides (50 MBq/nmol) were determined using a shake-flask method according to a previously published procedure (Supplementary Material).
Methods: A sample of each radiopeptide (50 MBq/nmol) was added to mouse blood plasma (Lot: 32321, Rockland Immunochemicals Inc., USA) or to human blood plasma (Stiftung Blutspende SRK Aargau-Solothurn, Switzerland) to obtain an activity concentration of 10 MBq/200 µL. The test samples were incubated at 37 °C for up to 24 h. Control samples referred to the radiopeptides which were instead diluted in saline at an activity concentration of 10 MBq/200 µL. Aliquots of each sample (2 µL, ~100 kBq) were taken after 1 h, 4 h and 24 h and investigated by means of thin layer chromatography (TLC). The employed method involved reversed-phase TLC plates (MERCK Analytical Chromatography, TLC Silica gel 60 RP-18 F254s) as stationary phase and ACN/citrate buffer (3:7; v/v; pH 5.5) as mobile phase. After the eluent reached the front line, the TLC plates were dried and exposed to a phosphor screen (Super resolution screen PSR10450013, PerkinElmer) for 1 min. The respective screen was developed using a storage phosphor system (Cyclone Plus, PerkinElmer) and analyzed using the OptiQuant Software (version 5.0, Bright Instrument Co Ltd., PerkinElmer).

mouse serum albumin = biological target: T1, mouse serum albumin (Mus musculus, UniProt P07724); type: in vitro ADME
T1 construct: tissue Rockland Immunochemicals Inc., USA Lot: 32321; host or cells: mouse blood plasma
T1 sequence (P07724 25-608): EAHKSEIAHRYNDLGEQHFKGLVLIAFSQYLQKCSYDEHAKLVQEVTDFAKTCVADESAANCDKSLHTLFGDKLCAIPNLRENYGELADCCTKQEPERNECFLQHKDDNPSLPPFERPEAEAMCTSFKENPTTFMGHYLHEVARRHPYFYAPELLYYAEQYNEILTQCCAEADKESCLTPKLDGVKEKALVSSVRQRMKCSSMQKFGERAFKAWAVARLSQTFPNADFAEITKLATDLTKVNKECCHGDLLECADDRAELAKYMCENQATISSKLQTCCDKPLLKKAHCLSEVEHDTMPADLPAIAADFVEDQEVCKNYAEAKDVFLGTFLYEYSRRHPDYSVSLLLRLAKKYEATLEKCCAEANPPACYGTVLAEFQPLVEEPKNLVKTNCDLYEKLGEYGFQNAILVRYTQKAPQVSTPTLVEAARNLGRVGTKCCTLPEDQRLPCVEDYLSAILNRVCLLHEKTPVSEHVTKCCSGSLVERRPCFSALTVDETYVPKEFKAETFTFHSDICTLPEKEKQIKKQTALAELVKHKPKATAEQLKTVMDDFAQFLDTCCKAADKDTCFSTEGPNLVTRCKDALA
Description: (§1) The albumin-binding properties of the radiopeptides in mouse and human blood plasma were determined using an ultrafiltration assay with Amicon centrifugal filters (cut-off of 10 kDa; Merck Millipore) as previously reported (Supplementary Material). A fixed amount of the respective radiopeptide (~ 300 kBq, 15 µL, 6 pmol) was added to a defined volume (150 µL) of mouse and human blood plasma dilutions to obtain [mouse serum albumin]-to-[radiopeptide] molar concentration ratios of 0.01‒12,500 and [human serum albumin]-to-[radiopeptide] molar concentration ratios of 0.01‒20,000. The data were analyzed using a semi-logarithmic Hill plot with the maximum binding set as 100% using GraphPad Prism software (version 10.1.1). The half-maximum binding (B50 values) of each radiopeptide was expressed as relative values using the inverse ratios with the value of [^177Lu]Lu-uPAR-11 set as 1.0. […] The samples were incubated at 37 °C for 30 min. Ice-cold PBS (150 µL, pH 7.4) was added before loading the blood plasma samples on Amicon centrifugal filters (cut-off of 10 kDa; Merck Millipore) followed by centrifugation (14000 rcf, 4 °C, 30 min) to allow the separation of the plasma protein-bound from the unbound (free) fractions of each sample. The inserts of the filter devices were inverted and centrifuged at 200 rcf for 3 min to recover the protein-bound radiopeptide. The activity of the protein-bound fraction was measured using a γ-counter (Wallac Wizard 1480, PerkinElmer). The activity in the filtrate and filter unit was counted in the γ-counter and the counts were combined, assuming that the fraction retained in the filter membrane was not bound to proteins. The protein-bound fraction was expressed as percentage of the whole activity (i.e. plasma protein-bound activity, activity measured in the filtrate and activity measured in the filter (set as 100%)). The data were analyzed using a semi-logarithmic plot assuming a maximum binding of 100%. The Hill equation was fitted to the data points, and the half-maximum binding (B50) was determined based on the obtained binding curves using GraphPad Prism software (version 10.1.1). To quantitatively express and compare the albumin-binding properties of the radiopeptides, the relative albumin-binding affinity was expressed as the inverse half-maximal-binding (B50) of the respective radioligand to that of [^177Lu]Lu-uPAR-11, which was set as 1.0. The results were presented as the value obtained from the average curve from 3 independent experiments.

in vivo = conditions: CD1 nude, mouse, 0.5 nmol/mouse, total radioactivity
Description: HEK-uPAR xenografted mice were injected with the respective radiopeptide (5 MBq, 0.5 nmol/mouse, 100 µL 0.9% NaCl containing 0.05% BSA) and sacrificed at 4 h and 24 h after injection. […] The tissues and organs of interest were collected, weighed and counted for activity using a γ-counter (Wallac Wizard 1480, PerkinElmer). […] The results were presented as the average ± SD of n = 3 mice. The time-activity curves were determined for the uptake of [^177Lu]Lu-DOTA-AE105 and [^177Lu]Lu-uPAR-11 in the blood, HEK-uPAR xenografts, kidneys and liver based on non-decay corrected biodistribution data. For the blood, the initial uptake (t = 0) was set as 50% IA/g assuming a blood volume of 2 mL for CD1 nude mice. The initial uptake value (t = 0) for all other organs and tissues was set as 0% IA/g. […] The area under the curves over 48 h after injection (AUC0h→48 h) was calculated using GraphPad Prism software (version 10.1.1). Statistical analyses were performed by applying a one-way ANOVA test with a Dunnet’s multiple comparison post‐test to compare the data of the new radiopeptides with those of [^177Lu]Lu-DOTA-AE105 and a Tukey’s multiple comparisons post‐test to compare the novel radiopeptides among them. A p-value of < 0.05 was considered a statistically significant difference using GraphPad Prism software (version 10.1.1).

human serum albumin = human serum albumin (Homo sapiens, UniProt P02768); type: in vitro ADME; set-up: tissue Stiftung Blutspende SRK Aargau-Solothurn, Switzerland; host or cells: human blood plasma
Chain of human serum albumin (P02768 25-609): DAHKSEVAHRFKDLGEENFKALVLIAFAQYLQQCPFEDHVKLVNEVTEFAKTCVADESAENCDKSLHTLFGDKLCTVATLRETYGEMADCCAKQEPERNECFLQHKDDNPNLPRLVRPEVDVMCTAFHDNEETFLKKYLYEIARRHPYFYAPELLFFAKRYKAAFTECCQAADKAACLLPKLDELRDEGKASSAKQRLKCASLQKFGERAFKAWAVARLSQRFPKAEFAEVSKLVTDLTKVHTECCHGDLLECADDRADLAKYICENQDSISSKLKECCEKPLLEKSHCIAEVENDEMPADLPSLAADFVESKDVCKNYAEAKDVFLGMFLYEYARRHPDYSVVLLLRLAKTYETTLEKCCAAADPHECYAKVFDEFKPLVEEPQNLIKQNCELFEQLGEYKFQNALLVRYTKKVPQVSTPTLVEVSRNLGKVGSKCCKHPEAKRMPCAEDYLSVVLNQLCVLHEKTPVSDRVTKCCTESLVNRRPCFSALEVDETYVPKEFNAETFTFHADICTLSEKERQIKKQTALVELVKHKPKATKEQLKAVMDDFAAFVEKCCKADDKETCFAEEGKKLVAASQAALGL
Description: as §1

Row | SMILES | Human blood plasma stability, intact radiopeptide ([1]; 1 h) [%] | Mouse blood plasma stability, intact radiopeptide ([1]; 1 h) [%] | Human blood plasma stability, intact radiopeptide ([1]; 4 h) [%] | Mouse blood plasma stability, intact radiopeptide ([1]; 4 h) [%] | Human blood plasma stability, intact radiopeptide ([1]; 24 h) [%] | Mouse blood plasma stability, intact radiopeptide ([1]; 24 h) [%] | tissue uptake at 4 h (in vivo; Blood uptake) [%ID/g] | tissue uptake at 24 h (in vivo; Blood uptake) [%ID/g] | tissue uptake at 4 h (in vivo; Bone uptake) [%ID/g] | tissue uptake at 24 h (in vivo; Bone uptake) [%ID/g] | tissue uptake at 4 h (in vivo; Brain uptake) [%ID/g] | tissue uptake at 24 h (in vivo; Brain uptake) [%ID/g] | tissue uptake at 4 h (in vivo; HEK-uPAR xenograft uptake) [%ID/g] | tissue uptake at 24 h (in vivo; HEK-uPAR xenograft uptake) [%ID/g] | tissue uptake at 4 h (in vivo; Heart uptake) [%ID/g] | tissue uptake at 24 h (in vivo; Heart uptake) [%ID/g] | tissue uptake at 4 h (in vivo; Intestines uptake) [%ID/g] | tissue uptake at 24 h (in vivo; Intestines uptake) [%ID/g] | tissue uptake at 4 h (in vivo; Kidneys uptake) [%ID/g] | tissue uptake at 24 h (in vivo; Kidneys uptake) [%ID/g] | other results
1 | Cc1ccc(CCCC(=O)NCCOCCOCCOCCOCCOCCC(=O)NCCCC[C@H](NC(=O)CN2CCN(CC(=O)O)CCN(CC(=O)O)CCN(CC(=O)O)CC2)C(=O)N[C@@H](CC(=O)O)C(=O)N[C@@H](CC2CCCCC2)C(=O)N[C@@H](Cc2ccccc2)C(=O)N[C@H](CO)C(=O)N[C@H](CCCNC(=N)N)C(=O)N[C@@H](Cc2ccc(O)cc2)C(=O)N[C@@H](CC(C)C)C(=O)N[C@@H](Cc2c[nH]c3ccccc23)C(=O)N[C@@H](CO)C(N)=O)cc1 [[^177Lu]Lu-uPAR-18, metal not drawn] | 100 ± 1 | 100 ± 1 | 99 ± 1 | 99 ± 2 | 95 ± 2 | 89 ± 3 | 3.4 ± 0.7 | 0.05 | 0.5 ± 0.04 | 0.19 ± 0.01 | 0.08 ± 0.01 | < 0.03 | 14 ± 1 | 7.3 ± 0.4 | 1.3 ± 0.2 | 0.12 ± 0.01 | 0.58 ± 0.14 | 0.17 ± 0.02 | 3.7 ± 0.4 | 2.1 ± 0.2 | Albumin-binding properties, relative values (inverse B50 ratio) (mouse serum albumin): 0.66; tissue uptake at 4 h (in vivo; Liver uptake): 1.2 ± 0.1 %ID/g; tissue uptake at 24 h (in vivo; Liver uptake): 0.38 ± 0.06 %ID/g; tissue uptake at 4 h (in vivo; Lung uptake): 2.1 ± 0.4 %ID/g; tissue uptake at 24 h (in vivo; Lung uptake): 0.29 ± 0.02 %ID/g; tissue uptake at 4 h (in vivo; Muscle uptake): 0.37 ± 0.03 %ID/g; tissue uptake at 24 h (in vivo; Muscle uptake): 0.06 ± 0.01 %ID/g; tissue uptake at 4 h (in vivo; Pancreas uptake): 0.63 ± 0.27 %ID/g; tissue uptake at 24 h (in vivo; Pancreas uptake): 0.09 ± 0.01 %ID/g; tissue uptake at 4 h (in vivo; Salivary glands uptake): 0.87 ± 0.2 %ID/g; tissue uptake at 24 h (in vivo; Salivary glands uptake): 0.23 ± 0.03 %ID/g; tissue uptake at 4 h (in vivo; Spleen uptake): 0.77 ± 0.01 %ID/g; tissue uptake at 24 h (in vivo; Spleen uptake): 0.42 ± 0.04 %ID/g; tissue uptake at 4 h (in vivo; Stomach uptake): 0.54 ± 0.12 %ID/g; tissue uptake at 24 h (in vivo; Stomach uptake): 0.11 ± 0.02 %ID/g; Inverse relative albumin-binding affinity (human serum albumin): 1.05
2 | Cc1ccc(CCCC(=O)NCCCCCCCC(=O)NCCCC[C@H](NC(=O)CN2CCN(CC(=O)O)CCN(CC(=O)O)CCN(CC(=O)O)CC2)C(=O)N[C@@H](CC(=O)O)C(=O)N[C@@H](CC2CCCCC2)C(=O)N[C@@H](Cc2ccccc2)C(=O)N[C@H](CO)C(=O)N[C@H](CCCNC(=N)N)C(=O)N[C@@H](Cc2ccc(O)cc2)C(=O)N[C@@H](CC(C)C)C(=O)N[C@@H](Cc2c[nH]c3ccccc23)C(=O)N[C@@H](CO)C(N)=O)cc1 [[^177Lu]Lu-uPAR-12, metal not drawn] | 100 ± 1 | 100 ± 1 | 99 ± 1 | 99 ± 1 | 98 ± 1 | 99 ± 1 | 12 ± 1 | 3.4 ± 1 | 1.4 ± 0.1 | 0.78 ± 0.15 | 0.24 ± 0.01 | 0.1 ± 0.03 | 6 ± 0.2 | 5.7 ± 0.7 | 4 ± 0.3 | 1.6 ± 0.2 | 1.5 ± 0.1 | 0.76 ± 0.12 | 3.9 ± 0.1 | 4.3 ± 0.3 | tissue uptake at 4 h (in vivo; Liver uptake): 5.3 ± 0.3 %ID/g; tissue uptake at 24 h (in vivo; Liver uptake): 4.2 ± 0.3 %ID/g; tissue uptake at 4 h (in vivo; Lung uptake): 7.2 ± 1.3 %ID/g; tissue uptake at 24 h (in vivo; Lung uptake): 2.6 ± 0.6 %ID/g; tissue uptake at 4 h (in vivo; Muscle uptake): 1.2 ± 0.1 %ID/g; tissue uptake at 24 h (in vivo; Muscle uptake): 0.6 ± 0.22 %ID/g; tissue uptake at 4 h (in vivo; Pancreas uptake): 1.4 ± 0.2 %ID/g; tissue uptake at 24 h (in vivo; Pancreas uptake): 0.79 ± 0.24 %ID/g; tissue uptake at 4 h (in vivo; Salivary glands uptake): 2.7 ± 0.2 %ID/g; tissue uptake at 24 h (in vivo; Salivary glands uptake): 1.4 ± 0.2 %ID/g; tissue uptake at 4 h (in vivo; Spleen uptake): 1.9 ± 0.1 %ID/g; tissue uptake at 24 h (in vivo; Spleen uptake): 2 ± 0.6 %ID/g; tissue uptake at 4 h (in vivo; Stomach uptake): 1.4 ± 0.1 %ID/g; tissue uptake at 24 h (in vivo; Stomach uptake): 0.52 ± 0.16 %ID/g
3 | Cc1ccc(CCCC(=O)NCCOCCOCCOCCC(=O)NCCCC[C@H](NC(=O)CN2CCN(CC(=O)O)CCN(CC(=O)O)CCN(CC(=O)O)CC2)C(=O)N[C@@H](CC(=O)O)C(=O)N[C@@H](CC2CCCCC2)C(=O)N[C@@H](Cc2ccccc2)C(=O)N[C@H](CO)C(=O)N[C@H](CCCNC(=N)N)C(=O)N[C@@H](Cc2ccc(O)cc2)C(=O)N[C@@H](CC(C)C)C(=O)N[C@@H](Cc2c[nH]c3ccccc23)C(=O)N[C@@H](CO)C(N)=O)cc1 [[^177Lu]Lu-uPAR-15, metal not drawn] | 100 ± 1 | 100 ± 1 | 99 ± 1 | 99 ± 1 | 96 ± 1 | 94 ± 2 | 4.5 ± 0.5 | 0.04 ± 0.01 | 0.66 ± 0.05 | 0.12 ± 0.03 | 0.1 ± 0.02 | < 0.03 | 12 ± 1 | 3.1 ± 0.8 | 1.6 ± 0.2 | 0.13 ± 0.01 | 0.74 ± 0.15 | 0.16 ± 0.03 | 3.9 ± 0.6 | 2 ± 0.3 | Albumin-binding affinity relative to [177Lu]Lu-uPAR-11 (mouse serum albumin): 0.50‒0.77; Albumin-binding properties, relative values (inverse B50 ratio) (mouse serum albumin): 0.77; tissue uptake at 4 h (in vivo; Liver uptake): 1.6 ± 0.2 %ID/g; tissue uptake at 24 h (in vivo; Liver uptake): 0.5 ± 0.11 %ID/g; tissue uptake at 4 h (in vivo; Lung uptake): 2.6 ± 0.4 %ID/g; tissue uptake at 24 h (in vivo; Lung uptake): 0.27 ± 0.06 %ID/g; tissue uptake at 4 h (in vivo; Muscle uptake): 0.41 ± 0.1 %ID/g; tissue uptake at 24 h (in vivo; Muscle uptake): 0.05 ± 0.01 %ID/g; tissue uptake at 4 h (in vivo; Pancreas uptake): 0.61 ± 0.1 %ID/g; tissue uptake at 24 h (in vivo; Pancreas uptake): 0.09 ± 0.02 %ID/g; tissue uptake at 4 h (in vivo; Salivary glands uptake): 1.2 ± 0.2 %ID/g; tissue uptake at 24 h (in vivo; Salivary glands uptake): 0.21 ± 0.03 %ID/g; tissue uptake at 4 h (in vivo; Spleen uptake): 0.93 ± 0.09 %ID/g; tissue uptake at 24 h (in vivo; Spleen uptake): 0.51 ± 0.23 %ID/g; tissue uptake at 4 h (in vivo; Stomach uptake): 0.67 ± 0.11 %ID/g; tissue uptake at 24 h (in vivo; Stomach uptake): 0.12 ± 0.03 %ID/g; Inverse relative albumin-binding affinity (human serum albumin): 0.77
